Among the test systems are SN12C renal; COLO 205 colon; CCRF-CEM leukemia; A498 renal; HCT-15 colon; NCI-H522 lung; UO-31 renal; EKVX NSCLC; SW-620 colon; OVCAR-3 ovarian.
Holding throughout (test): DTP human tumour cell line panel, 48 h

The term GI50 denotes the concentration that inhibits growth by half. By TGI is commonly meant the concentration giving total growth inhibition.

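The compound was tested at five concentrations on cells cultured in 96-well plates, with a 48-hour exposure period. GI50 = concentration required for 50% inhibition of growth. TGI denotes the concentration required for complete inhibition of growth.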

Regarding `CC(=O)[CH-]C(=O)c1ccccc1.CC(=O)[CH-]C(=O)c1ccccc1.CC(C)CCCC(C)[C@H]1CCC2[C@@H]3CC=C4C[C@@H]([O-])CC[C@]4(C)C3CC[C@@]21C.CC[O-].[Ti+4]` (some centres undefined), the GI50 in the experiment on SN12C renal was 94.5 µM; in the experiment with COLO 205 colon, 48.5 µM; in the experiment on CCRF-CEM leukemia, 35.5 µM; in the experiment with A498 renal, 53.1 µM; in the experiment on HCT-15 colon, 53.8 µM; with NCI-H522 lung it was 26.3 µM. For the same compound, the GI50 in the experiment on UO-31 renal was 29.4 µM; in the experiment on EKVX NSCLC, 66.8 µM; in the experiment with SW-620 colon, 46.6 µM; in the experiment on OVCAR-3 ovarian it was 49.7 µM. Besides, the concentration for total growth inhibition (TGI) in the experiment with SN12C renal is greater than 100 µM; with COLO 205 colon, greater than 100 µM; with CCRF-CEM leukemia it was greater than 100 µM; in the experiment on A498 renal, greater than 100 µM; with HCT-15 colon, greater than 100 µM; in the experiment with NCI-H522 lung, 71.2 µM. The concentration for total growth inhibition (TGI) in the experiment with UO-31 renal, in the experiment on EKVX NSCLC, in the experiment on SW-620 colon and in the experiment with OVCAR-3 ovarian was greater than 100 µM throughout.
With `O=C1NC(=O)C2C(=O)NC(=O)C1C2(c1ccccc1)c1cc[nH]c1` (centres undefined), the total growth inhibition concentration (TGI) in the experiment with SN12C renal, with COLO 205 colon, in the experiment with CCRF-CEM leukemia, in the experiment on A498 renal, in the experiment on HCT-15 colon and with NCI-H522 lung was greater than 100 µM in each case. Moreover, the total growth inhibition concentration (TGI) in the experiment on UO-31 renal, in the experiment on EKVX NSCLC, in the experiment with SW-620 colon and in the experiment with OVCAR-3 ovarian was greater than 100 µM throughout.
With `COc1cc(C)c(Cl)cc1C1=NN(c2ccc(S(N)(=O)=O)cc2)C(/C=C/c2ccccc2)C1` (centres undefined), the GI50 in the experiment with SN12C renal was 2.68 µM; in the experiment on COLO 205 colon, 1.76 µM; in the experiment on CCRF-CEM leukemia it was 4.34 µM; with A498 renal it was 2.67 µM; in the experiment on HCT-15 colon, 3.11 µM; in the experiment on NCI-H522 lung, 2.3 µM. In addition, the GI50 is 2.54 µM with UO-31 renal, 2.68 µM in the experiment on EKVX NSCLC, 4.09 µM in the experiment on SW-620 colon and 2.61 µM with OVCAR-3 ovarian. Besides, the TGI in the experiment on SN12C renal was 7.03 µM; in the experiment on COLO 205 colon it was 3.33 µM; with CCRF-CEM leukemia it was greater than 100 µM; in the experiment with A498 renal, 5.71 µM; with HCT-15 colon it was greater than 100 µM; with NCI-H522 lung, 5.34 µM. Moreover, the TGI in the experiment on UO-31 renal came out at 12.6 µM; with EKVX NSCLC it was 22 µM; in the experiment on SW-620 colon it was 20.7 µM; with OVCAR-3 ovarian it was 6.46 µM.
Consider `O=C(c1ccco1)c1nc2cc(Cl)ccc2[n+]([O-])c1C(F)(F)F`, for which the GI50 in the experiment with SN12C renal was 91 µM; in the experiment on COLO 205 colon, greater than 100 µM; with CCRF-CEM leukemia, 0.0182 µM; in the experiment with A498 renal, greater than 100 µM; with HCT-15 colon it was 32.7 µM; in the experiment on NCI-H522 lung, 45.1 µM. The GI50 in the experiment on UO-31 renal was greater than 100 µM; with EKVX NSCLC it was 37.6 µM; with SW-620 colon it was 39.1 µM; in the experiment with OVCAR-3 ovarian, greater than 100 µM. Further, the TGI with SN12C renal is greater than 100 µM; with COLO 205 colon, greater than 100 µM; in the experiment on CCRF-CEM leukemia, 0.443 µM; with A498 renal, greater than 100 µM; in the experiment with HCT-15 colon, greater than 100 µM; in the experiment on NCI-H522 lung, greater than 100 µM. The TGI with UO-31 renal, with EKVX NSCLC, in the experiment on SW-620 colon and in the experiment with OVCAR-3 ovarian was greater than 100 µM in each case.
For `CCOC(=O)N1CCc2cc(OC)c(OC)c3c2c1cc1cc(OC)c(OC)cc13`, the TGI with SN12C renal was greater than 100 µM; with COLO 205 colon, 9.06 µM; in the experiment on CCRF-CEM leukemia it was greater than 58.3 µM; with A498 renal, 14.7 µM; with HCT-15 colon it was 37.9 µM; in the experiment with NCI-H522 lung it was 4.3 µM. Besides, the TGI is greater than 100 µM in the experiment on UO-31 renal, greater than 100 µM with EKVX NSCLC, 81.1 µM with SW-620 colon and 8.64 µM in the experiment with OVCAR-3 ovarian.
Turning to `O=C(Nc1cccc(Cl)c1)c1ccc(NC2=C(Cl)C(=O)N(Cc3ccccc3)C2=O)cc1`, the GI50 was 7.77 µM in the experiment on SN12C renal; 22.1 µM with COLO 205 colon; 0.436 µM in the experiment on CCRF-CEM leukemia; 34.4 µM in the experiment with A498 renal; 1.98 µM in the experiment with HCT-15 colon; 5.6 µM with NCI-H522 lung. The GI50 in the experiment on UO-31 renal was greater than 26.3 µM; in the experiment with EKVX NSCLC, greater than 46 µM; with SW-620 colon, 7.4 µM; with OVCAR-3 ovarian, 6.08 µM. For the same compound, the concentration for total growth inhibition (TGI) is 23 µM in the experiment with SN12C renal; greater than 57 µM in the experiment on COLO 205 colon; 1.44 µM in the experiment with CCRF-CEM leukemia; 96.2 µM in the experiment with A498 renal; 4.76 µM with HCT-15 colon; greater than 44.6 µM with NCI-H522 lung. The TGI is greater than 100 µM in the experiment with UO-31 renal, greater than 69.3 µM with EKVX NSCLC, 19.7 µM in the experiment with SW-620 colon and 13.8 µM in the experiment on OVCAR-3 ovarian.
As for `CC(C)(O)CS(=O)(=O)Nc1ccc2c(c1)CCN(C(=O)COc1cccnc1)C2`, the 50% growth inhibitory concentration (GI50) was 0.0677 µM with SN12C renal; 0.141 µM with COLO 205 colon; 1.02 µM in the experiment with CCRF-CEM leukemia; greater than 100 µM with A498 renal; 0.476 µM in the experiment with HCT-15 colon; greater than 100 µM with UO-31 renal. Further, the GI50 was greater than 100 µM in the experiment with EKVX NSCLC, 0.0495 µM in the experiment on SW-620 colon and greater than 100 µM with OVCAR-3 ovarian. The concentration for total growth inhibition (TGI) in the experiment on SN12C renal, in the experiment with COLO 205 colon, with CCRF-CEM leukemia, in the experiment with A498 renal, with HCT-15 colon and with NCI-H522 lung was greater than 100 µM throughout. Also, the concentration for total growth inhibition (TGI) in the experiment on UO-31 renal, in the experiment with EKVX NSCLC, in the experiment with SW-620 colon and in the experiment on OVCAR-3 ovarian was greater than 100 µM throughout.
`CCCc1cc2c(=O)c(C(=O)OC)c[nH]c2cc1N(CC)CC`: the GI50 in the experiment with SN12C renal is 41.2 µM; in the experiment with COLO 205 colon, 46.5 µM; with CCRF-CEM leukemia, 85.8 µM; with A498 renal, 82.3 µM; with HCT-15 colon, 76.7 µM; in the experiment on NCI-H522 lung, 38.5 µM. Also, the GI50 was 28.5 µM in the experiment with UO-31 renal, 16.9 µM in the experiment with EKVX NSCLC, 45.6 µM in the experiment with SW-620 colon and 16.4 µM in the experiment on OVCAR-3 ovarian. The TGI with SN12C renal, with COLO 205 colon, in the experiment with CCRF-CEM leukemia, in the experiment on A498 renal, in the experiment with HCT-15 colon and in the experiment on NCI-H522 lung was greater than 100 µM in each case. The concentration for total growth inhibition (TGI) in the experiment with UO-31 renal is greater than 100 µM; in the experiment with EKVX NSCLC, 42.7 µM; with SW-620 colon it was greater than 100 µM; in the experiment on OVCAR-3 ovarian, 38.3 µM.

Values taken from PubChem BioAssay (NCI).
